Data reported in patent US20070248540A1, “Biochemical methods for measuring metabolic fitness of tissues or whole organisms” (The Regents of the University of California, priority 2002, published 2007).
Where “and” joins values, the source holds several entries; their conditions need not be identical. Identical values can stand only once. Like-named read-outs stand apart in the source and are kept apart here.

Columns and labels:
[1] = Body ^2H2O enrichment (saliva samples) in subjects ingesting 70% ^2H2O over eight weeks; type: in vivo; settings: individual human subjects; oral 70% ^2H2O, eight-week study; one value per subject (251498, 251515, 251598, 251748, 251771)
Method: The protocol for incorporation of ^2H into human mitochondrial DNA from muscle biopsy samples is illustrated in the experimental design of FIG. 3d. Five human subjects enrolled as out-patients ingested 70 ml of 70% ^2H2O three times a day for 5 days then twice a day for 5 days; then ingested 50 ml twice a day thereafter for the remainder of the eight-week study period. Every two weeks, subjects gave a saliva sample (for measurement of body ^2H2O enrichment). At week 8, an open muscle biopsy was performed under surgical conditions. Mitochondria were isolated from excised muscle tissue (1 g) by ultracentrifugation, using methods well known in the art. Isolation of mitochondrial (mt) DNA and phospholipids (PL) were by procedures well known in the art. Measurement of fractional synthesis of mt PL was as described in the general methods, supra and in Collins et al., supra. Measured ^2H-incorporation (EM1=excess abundance of M+1 mass isotopomer of the molecule) and fractional synthesis (f) of mt DNA and mt PL are shown in Table 1.

[2] = Toxicity on long-term maintenance of ^2H2O body water enrichment in humans; type: in vivo, human; settings: body water enrichment 1-10% (0.5%-15%) maintained for weeks or months; >100 people
Source text: (§1) Relatively high body water enrichments of ^2H2O (e.g., 1-10% of the total body water is labeled) may be achieved using the techniques of the invention. Water enrichments of ^2H2O of 0.5%-15% may also be achieved using the techniques described herein. […] This finding in a large number of human subjects (>100 people) is contrary to previous concerns about vestibular toxicities at high doses of ^2H2O. Applicant has discovered that as long as rapid changes in body water enrichment are minimized (e.g., by initial administration in small, divided doses), high body water enrichments of ^2H2O can be maintained with a minimum toxicities. For example, the low expense of commercially available ^2H2O allows long-term maintenance of enrichments in the 1-5% range at relatively low expense (e.g., calculations reveal a lower cost for 2 months labeling at 2% ^2H2O enrichment, and thus 7-8% enrichment in the alanine precursor pool, than for 12 hours labeling of ^2H-leucine at 10% free leucine enrichment, and thus 7-8% enrichment in leucine precursor pool for that period).

[3] = in vivo
Source text: as §1

For `[2H]O[2H]` [^2H2O, deuterated water], the “Body ^2H2O (%)” value [1] was 0.5% and 1.7% and 1.1% and 2.0% and 1.0%, the evidence of toxicity [2] was “without any evidence of toxicity” and the evidence of toxicity [3] was “without any evidence of toxicity”.
